In this assay the target is T1, CymA (Shewanella oneidensis, UniProt Q8E8S0).
T1 sequence (Q8E8S0 1-187): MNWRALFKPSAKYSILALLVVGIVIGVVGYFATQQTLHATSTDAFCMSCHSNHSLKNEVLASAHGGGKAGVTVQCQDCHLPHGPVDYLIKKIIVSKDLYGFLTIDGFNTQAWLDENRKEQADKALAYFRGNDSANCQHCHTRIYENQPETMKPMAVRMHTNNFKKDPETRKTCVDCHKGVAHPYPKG
The experiment in a line: protein-film cyclic voltammetry, inhibition of menaquinone-7 reduction. Format: biochemical.

Broadly, the Ki is the dissociation constant of the complex between target and ligand, obtained from inhibition or displacement. Read a high Ki as lower affinity.

With `CCCCCCCc1cc(O)c2ccccc2[n+]1[O-]` [HQNO], the affinity corresponds to a Ki of 800 nM.
